Reference: article PMC12959348 (Angewandte Chemie (International ed. in English), 2025)

Experiments:
[1] = test system: ssDNA (DNA, single strand) CCCTAACCCTAACCCTAACCCTAA; assay: fluorescence polarization (intrinsic pomalidomide fluorescence); settings: 100 mM KCl; 10 mM Li-cacodylate, pH 7.4; ligand 0.2 µM; per site
[2] = test system: bcl2 (DNA, G4) GGGCGCGGGAGGAATTGGGCGGG; assay: fluorescence polarization (pomalidomide fluorescence); settings: 100 mM K+ (KCl), 10 mM Li-cacodylate, pH 7.4, ligand 0.2 µM, per binding site (two sites per G4)
[3] = test system: TERRA (RNA, G4) UAAGGGUAAGGGUAAGGGUAAGGG; assay: as above; settings: 100 mM K+ (KCl), 10 mM Li-cacodylate, pH 7.4, ligand 0.2 µM, per binding site (two sites per G4)
[4] = test system: dsDNA (DNA, hairpin) TATAGCTATATTTTTTTATAGCTATA; assay: fluorescence polarization (intrinsic pomalidomide fluorescence); settings: 100 mM KCl; 10 mM Li-cacodylate, pH 7.4; ligand 0.2 µM; per site
[5] = test system: telo24 (DNA, G4) TTAGGGTTAGGGTTAGGGTTAGGG; assay: as above; settings: 100 mM KCl; 10 mM Li-cacodylate, pH 7.4; ligand 0.2 µM; fit assumes two sites per G4; per site
[6] = test system: NRAS (RNA, G4) UGUGGGAGGGGCGGGUCUGGGUGC; assay: as above; settings: 100 mM KCl; 10 mM Li-cacodylate, pH 7.4; ligand 0.2 µM; fit assumes two sites per G4; per site
[7] = test system: VEGF (DNA, G4) CGGGGCGGGCCTTGGGCGGGGT; assay: as above; settings: 100 mM KCl; 10 mM Li-cacodylate, pH 7.4; ligand 0.2 µM; fit assumes two sites per G4; per site
[8] = test system: KRAS (DNA, G4) AGGGCGGTGTGGGAATAGGGAA; assay: as above; settings: 100 mM KCl; 10 mM Li-cacodylate, pH 7.4; ligand 0.2 µM; fit assumes two sites per G4; per site
[9] = test system: VEGFR (DNA, G4) GGGTACCCGGGTGAGGTGCGGGGT; assay: as above; settings: 100 mM KCl; 10 mM Li-cacodylate, pH 7.4; ligand 0.2 µM; fit assumes two sites per G4; per site
[10] = test system: PARP1 (DNA, G4) TGGGGTCCGAGGCGGGGCTTGGG; assay: as above; settings: 100 mM KCl; 10 mM Li-cacodylate, pH 7.4; ligand 0.2 µM; fit assumes two sites per G4; per site
[11] = test system: c-kit1 (DNA, G4) AGGGAGGGCGCTGGGAGGAGGG; assay: as above; settings: 100 mM KCl; 10 mM Li-cacodylate, pH 7.4; ligand 0.2 µM; fit assumes two sites per G4; per site
[12] = test system: 19wt (DNA, G4) GGGGGAGGGGTACAGGGGTACAGGGG; assay: as above; settings: 100 mM KCl; 10 mM Li-cacodylate, pH 7.4; ligand 0.2 µM; fit assumes two sites per G4; per site
[13] = test system: TERRA (RNA, G4) UAAGGGUAAGGGUAAGGGUAAGGG; assay: as above; settings: 100 mM KCl; 10 mM Li-cacodylate, pH 7.4; ligand 0.2 µM; fit assumes two sites per G4; per site
[14] = test system: bcl2 (DNA, G4) GGGCGCGGGAGGAATTGGGCGGG; assay: as above; settings: 100 mM KCl; 10 mM Li-cacodylate, pH 7.4; ligand 0.2 µM; fit assumes two sites per G4; per site
cereblon (CRBN) = biological target: T1, cereblon (CRBN) (Homo sapiens, UniProt Q96SW2); assay: TR-FRET displacement of thalidomide-red from Eu3+-cryptate-labeled CRBN; type: binding
T1 construct: Eu3+-cryptate-labeled CRBN
Source text: TR-FRET displacement of thalidomide-red from Eu3+-cryptate-labeled CRBN on cereblon (CRBN) | displacement of thalidomide-red and binding of 1a and 2a to CRBN.

T1 sequence (Q96SW2 whole entry): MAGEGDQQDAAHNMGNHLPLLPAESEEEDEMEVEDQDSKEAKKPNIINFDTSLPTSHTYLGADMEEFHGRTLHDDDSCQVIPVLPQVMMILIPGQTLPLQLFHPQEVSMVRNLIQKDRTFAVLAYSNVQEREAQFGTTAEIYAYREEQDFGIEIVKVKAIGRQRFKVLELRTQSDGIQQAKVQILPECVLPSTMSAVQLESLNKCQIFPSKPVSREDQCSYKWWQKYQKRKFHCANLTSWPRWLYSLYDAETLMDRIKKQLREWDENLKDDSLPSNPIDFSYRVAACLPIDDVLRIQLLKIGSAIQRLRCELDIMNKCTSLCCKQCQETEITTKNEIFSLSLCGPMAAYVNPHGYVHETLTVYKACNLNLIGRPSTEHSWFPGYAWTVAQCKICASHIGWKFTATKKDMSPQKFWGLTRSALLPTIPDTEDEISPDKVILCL

SMILES | Kd [1] [nM] | Kd [2] [nM] | Kd [3] [nM] | Kd [4] [nM] | Kd [5] [nM] | Kd [6] [nM] | Kd [7] [nM] | Kd [8] [nM] | Kd [9] [nM] | Kd [10] [nM] | Kd [11] [nM] | Kd [12] [nM] | Kd [13] [nM] | Kd [14] [nM] | IC50 (cereblon (CRBN)) [nM]
Cc1oc2nc1-c1nc(c(CCCNC(=O)CCOCCOCCOCCOCCNc3cccc4c3C(=O)N(C3CCC(=O)N(C)C3=O)C4=O)o1)-c1nc(co1)C(=O)N[C@@H](CCCCN)c1nc(co1)-c1nc(co1)-c1nc(co1)C(=O)N[C@H]2CCCCN (some centres unmarked) | > 1200 | 278 ± 258 | 110 ± 115 | > 1200 | 155 ± 29 | 96 ± 28 | – | – | – | – | – | – | – | – | –
Cc1oc2nc1-c1nc(c(CCCNC(=O)CNc3cccc4c3C(=O)N(C3CCC(=O)N(C)C3=O)C4=O)o1)-c1nc(co1)C(=O)N[C@@H](CCCCN)c1nc(co1)-c1nc(co1)-c1nc(co1)C(=O)N[C@H]2CCCCN (some centres unmarked) | > 1200 | – | – | > 1200 | 33 ± 17 | 10 ± 5 | 4 ± 3 | 19 ± 14 | 46 ± 18 | 39 ± 16 | 38 ± 41 | 289 ± 184 | 26 ± 22 | 104 ± 53 | –
Cc1oc2nc1-c1nc(c(CCCNC(=O)CNc3cccc4c3C(=O)N(C3CCC(=O)NC3=O)C4=O)o1)-c1nc(co1)C(=O)N[C@@H](CCCCN)c1nc(co1)-c1nc(co1)-c1nc(co1)C(=O)N[C@H]2CCCCN (some centres unmarked) [1a] | > 1200 | – | – | > 1200 | 108 ± 75 | 65 ± 2 | 42 ± 38 | 45 ± 35 | 27 ± 5 | 42 ± 40 | 39 ± 23 | 103 ± 27 | 72 ± 39 | 30 ± 13 | 61
Cc1oc2nc1-c1nc(c(CCCNC(=O)CCOCCOCCOCCOCCNc3cccc4c3C(=O)N(C3CCC(=O)NC3=O)C4=O)o1)-c1nc(co1)C(=O)N[C@@H](CCCCN)c1nc(co1)-c1nc(co1)-c1nc(co1)C(=O)N[C@H]2CCCCN (some centres unmarked) [2a] | > 1200 | – | – | > 1200 | 356 ± 210 | 68 ± 56 | 46 ± 23 | 103 ± 45 | 802 ± 325 | 817 ± 447 | 178 ± 22 | 3402 ± 436 | 5 ± 4 | 266 ± 178 | 90
